Data set [1] is described as follows: TGA weight loss / thermal stability. The following applies: for thermal stability: comparison of TGA/DSC patterns; for TGA weight loss: heated to 150° C. In kind it is physicochemical. An excerpt: TGA and DSC patterns were collected on a TA Q5000 thermogravimetric analyzer and a TA Discovery 2500 differential scanning calorimeter, respectively.
TGA results were collected on a TA Discovery 5500 thermogravimetric analyzer, and DSC results were collected on a TA Discovery 2500 differential scanning calorimeter.

On data set [2], the source says:
DVS isotherms were collected on an SMS (Surface Measurement Systems) DVS Intrinsic.

The nature of data set [3]: Assessment of dynamic solubility. In kind it is physicochemical. The following applies: for pH of filtrate: 37° C.
How the values of data set [4] were obtained:
A method for testing the density and the tapped density included: (1) a certain mass of to-be-assessed sample was placed into a 5 mL measuring cylinder, and the volume at this moment was recorded. The bulk density was calculated by dividing the mass of the sample by the volume at this moment. (2) The measuring cylinder was slightly tapped 200 times, the final volume was recorded, and the tapped density was calculated by dividing the mass of the sample by the final volume. (3) Three parallel tests were conducted. A method for testing the angle of repose included: (1) a funnel was fixed vertically to a bottom surface, and the material was slowly placed into the funnel. (2) A well-proportioned cone of the material was formed on the bottom surface. The height and bottom surface diameter of the cone were measured. (3) Three parallel tests were conducted.
This is another data set of the same source.

Data set [5] in a line: Assessment of 24-h solubility in pH buffers. In kind it is physicochemical. Conditions: room temperature; for FC: crystal transfer: Buffer (pH = 7.4); for solubility at 24 h: thermodynamic from solid, read-out: S: solubility, calculated as free form.
The source holds these as a separate data set.
Data set [6] is described as follows: Pharmacokinetics of hydrochloride crystal form A in Beagle dogs. In kind it is in vivo. Conditions: single i.g. 6 mg/kg. The method, then:
In this experiment, three male Beagle dogs were randomly selected for administration. All the animals were fasted for at least 12 h before administration and were fed again 4 h after administration. […] The blood samples from the animals were collected through the jugular vein, with a blood sample volume of 0.5 mL/time. All collected whole blood samples were placed in centrifuge tubes containing EDTA-K2, and the centrifuge tubes were turned upside down to allow the anticoagulant and blood to be fully mixed. All the blood samples were placed on wet ice before centrifugation and centrifuged at 1500 g for 10 min to separate plasma. The plasma samples were transferred to sample tubes and stored at -40° C. to […] until analysis. The drug concentration in the plasma of each Beagle dog was detected by an LC-MS/MS method.

The mark [7] stands for this setting: listed as phosphate crystal form A.
[8] abbreviates: listed as hydrochloride crystal form A.
The mark [9] stands for this setting: dog, plasma, po, male Beagle dogs, mean.

SMILES strings stand for the structures. Where a name gives a salt, the structure may show the parent alone. Read-outs that look alike come from different tables or passages of the source. Where only a bound is given, the exact number is not on record here.

Turning to `CC[S@@](=N)(=O)C[C@H]1CC[C@H](N(C)c2ncnc3[nH]ccc23)CC1` [Phosphate crystal form A], the thermal stability result in data set [1] (setting [7]) is given as “slightly poor thermal stability”. Also, the TGA weight loss in data set [1] (listed as Phosphate Crystal Form A) and in data set [1] (setting [7]) was 2.82% in each case.
With `CC[S@@](=N)(=O)C[C@H]1CC[C@H](N(C)c2ncnc3[nH]ccc23)CC1` [Sulfate crystal form A], in data set [1] (listed as sulfate crystal form A), the thermal stability result is recorded as “poor thermal stability”. Moreover, the “TGA stepwise weight loss” value in data set [1] (heated to 100° C.) worked out at 14.83%.
With `CC[S@@](=N)(=O)C[C@H]1CC[C@H](N(C)c2ncnc3[nH]ccc23)CC1` [Hydrochloride crystal form A], the thermal stability result in data set [1] is listed as “high”. Besides, the TGA weight loss in data set [1] (listed as Hydrochloride Crystal Form A) and in data set [1] (setting [8]) was 0.53% throughout. Besides, the hygroscopicity entry in data set [2] (25° C./80% RH) is listed as “slight hygroscopicity”. Also, the “Crystal transformation after DVS” value in data set [2] (XRPD before and after DVS) was “No”. The pH of filtrate in data set [3] (FaSSIF, 1 h) came to 5.0; in data set [3] (FaSSIF, 4 h), 5.1; in data set [3] (FeSSIF, 2 h), 4.9; in data set [3] (FeSSIF, 4 h), 4.9; in data set [3] (H2O, 1 h), 4.0; in data set [3] (H2O, 2 h), 4.0. The pH of filtrate is reported as 4.0 in data set [3] (H2O, 4 h); 2.9 in data set [3] (SGF, 1 h); 3.0 in data set [3] (SGF, 4 h). For the same molecule, the solubility in data set [3] (H2O, SGF, FaSSIF and FeSSIF, 37 °C, water, thermodynamic from solid, in H2O, fully soluble) was > 9000 µg/mL. The flowability entry in data set [4] (conclusion from Carr index and angle of repose) is “high flowability”. The same molecule registered a Bulk density in data set [4] (single tests 1 to 3) of 0.14 g/mL. In addition, the Average bulk density in data set [4] (three parallel tests) turned out to be 0.14 g/mL. In data set [4] (three parallel tests, tapped 200 times), the Average tapped density came to 0.24 g/mL. Besides, the “FC: crystal transfer” value in data set [5] is “Yes”; in data set [5] (setting [8]) it was “transformed into the free crystal form A”. For the same molecule, the solubility at 24 h was > 9200 µg/mL in data set [5] (buffer pH 2.0, pH 2, aqueous buffer, Buffer (pH = 2.0)) and > 9200 µg/mL in data set [5] (buffer pH 4.5, pH 4.5, aqueous buffer, Buffer (pH = 4.5)). Moreover, the “UPLC peak Area, RRT 1.62” value amounted to 0.05% (25° C./60% RH/4 weeks), 0.05% (40° C./75% RH/4 weeks), 0.05% (80° C./1 d) and 0.05% (Starting). For the same molecule, the “UPLC peak Area, RRT 2.10” value reads like this: (25° C./60% RH/4 weeks) 0.07%; (40° C./75% RH/4 weeks) 0.07%; (80° C./1 d) 0.08%; (Starting) 0.08%. In addition, the “UPLC peak Area, RRT 2.19” value is recorded as <0.05% (25° C./60% RH/4 weeks), <0.05% (40° C./75% RH/4 weeks), <0.05% (80° C./1 d) and 0.06% (Starting). The “Crystal form Transform” value reads like this: (25° C./60% RH/4 weeks, open) “No”; (40° C./75% RH/4 weeks, open) “No”; (80° C./1 d, closed) “No”. Also, the “UPLC peak Area, RRT 1.00” value is reported as 99.88% (40° C./75% RH/4 weeks) and 99.82% (Starting). Moreover, the Purity reads like this: (40° C./75% RH/4 weeks, open) 99.88 area %; (80° C./1 d, closed) 99.87 area %. Further, for the setting “before storage, UPLC”, the Starting purity came to 99.82 area %. Also, the AUC(0-inf) in data set [6] (setting [9]) amounted to 32100 ng·h/mL. In data set [6] (setting [9]), this molecule yielded an AUC(0-t) of 31700 ng·h/mL. In data set [6] (setting [9]), this molecule yielded a Cmax of 5290 ng/mL. In addition, the Tmax in data set [6] (setting [9]) was found to be 0.417 h. In data set [6] (setting [9]), this molecule gave a half-life of 3.59 h. The MRT inf in data set [6] (dog, plasma, po, male Beagle dogs, mean, read-out: MRT0-inf) was found to be 5.11 h. In addition, the MRT last in data set [6] (dog, plasma, po, male Beagle dogs, mean, read-out: MRT0-t) stood at 4.84 h. Moreover, the clinical observation entry in data set [6] is “no obvious abnormalities were found”.

In general, solubility refers to the concentration that dissolves in the medium under given conditions. As a reminder, the AUC(0-inf) is total exposure, with the tail of the curve extrapolated. As usually defined, the AUC(0-t) is the area under the concentration-time curve up to a stated or last time point. High values mean more exposure, low ones less exposure. In general, Cmax refers to the highest concentration seen after dosing. As usually defined, the Tmax is the time at which the peak concentration occurs. One may read the half-life as the time needed for the level to fall by half in the phase considered. A high value points to slow decline.

The values are drawn from patent US20260224573A1, “CRYSTAL FORM OF COMPOUND, AND PREPARATION METHOD AND USE THEREOF” (FELICAMED BIOTECHNOLOGY CO., LTD., priority 2023, published 2026).
